Several values for one entry are separate records, joined by “and”; a condition that tells them apart may be missing. Equal entries are not always repeated.
Test system: BDF1 mice, Adenocarcinoma 755 s.c., tumor weight T/C
Experiment: NCI In Vivo Anticancer Drug Screen. Data for tumor model Adenocarcinoma 755 (subcutaneous) in B6D2F1 (BDF1) mice
Conditions: endpoint: mean tumor weight, higher = larger tumour
Procedure, shortened: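 Values express treated (T) relative to vehicle-dosed control (C) animals, based on survival or tumour size measured after compound treatment of mice bearing a transplanted tumour.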

[1] = dose: 25.0 mg/kg/injection, schedule: Q01DX011 (ip), vehicle: methylcellulose (MC)
[2] = dose: 75.0 mg/kg/injection, schedule: Q01DX011 (ip), vehicle: methylcellulose (MC)
[3] = dose: 15.0 mg/kg/injection, schedule: Q01DX011 (ip), vehicle: methylcellulose (MC)
[4] = dose: 31.0 mg/kg/injection, schedule: Q01DX011 (ip), vehicle: methylcellulose (MC)
[5] = dose: 62.0 mg/kg/injection, schedule: Q01DX011 (ip), vehicle: methylcellulose (MC)
[6] = dose: 125.0 mg/kg/injection, schedule: Q01DX011 (ip), vehicle: methylcellulose (MC)
[7] = dose: 12.5 mg/kg/injection, schedule: Q01DX011 (ip), vehicle: methylcellulose (MC)
[8] = dose: 25.0 mg/kg/injection, schedule: Q01DX011 (ip), vehicle: carboxymethylcellulose (CMC)
[9] = dose: 50.0 mg/kg/injection, schedule: Q01DX011 (ip), vehicle: carboxymethylcellulose (CMC)
[10] = dose: 50.0 mg/kg/injection, schedule: Q01DX011 (ip), vehicle: methylcellulose (MC)
[11] = dose: 5.0 mg/kg/injection, schedule: Q01DX011 (ip), vehicle: carboxymethylcellulose (CMC)
[12] = dose: 20.0 mg/kg/injection, schedule: Q01DX011 (ip), vehicle: carboxymethylcellulose (CMC)
[13] = dose: 40.0 mg/kg/injection, schedule: Q01DX011 (ip), vehicle: carboxymethylcellulose (CMC)
[14] = dose: 80.0 mg/kg/injection, schedule: Q01DX011 (ip), vehicle: carboxymethylcellulose (CMC)
[15] = dose: 30.0 mg/kg/injection, schedule: Q01DX011 (ip), vehicle: carboxymethylcellulose (CMC)
[16] = dose: 60.0 mg/kg/injection, schedule: Q01DX011 (ip), vehicle: carboxymethylcellulose (CMC)
[17] = dose: 120.0 mg/kg/injection, schedule: Q01DX011 (ip), vehicle: carboxymethylcellulose (CMC)
[18] = dose: 400.0 mg/kg/injection, schedule: Q01DX011 (ip), vehicle: carboxymethylcellulose (CMC)

SMILES: Nc1nc(SCc2ccccc2)c2ncn(C3CCCCC3)c2n1
- T/C [1]: 113 % of control
- T/C [2]: 121 % of control
- T/C (dose: 225.0 mg/kg/injection, schedule: Q01DX011 (ip), vehicle: methylcellulose (MC)): 210 % of control

SMILES: O=C1c2ccccc2C(=O)c2c1c(O)c1ccccc1c2O
- T/C (dose: 100.0 mg/kg/injection, schedule: Q#A X022 (im), vehicle: other): 92 % of control
- T/C (dose: 100.0 mg/kg/injection, schedule: Q#A X022 (sc), vehicle: other): 82 % of control
- T/C (dose: 200.0 mg/kg/injection, schedule: Q#A X022 (im), vehicle: other): 79 % of control
- T/C (dose: 200.0 mg/kg/injection, schedule: Q#A X022 (sc), vehicle: other): 82 % of control
- T/C (dose: 300.0 mg/kg/injection, schedule: Q#A X022 (im), vehicle: other): 73 % of control
- T/C (dose: 300.0 mg/kg/injection, schedule: Q#A X022 (ip), vehicle: other): 29 % of control
- T/C (dose: 300.0 mg/kg/injection, schedule: Q#A X022 (sc), vehicle: other): 52 % of control
- T/C (dose: 400.0 mg/kg/injection, schedule: Q#A X022 (im), vehicle: other): 73 % of control
- T/C (dose: 400.0 mg/kg/injection, schedule: Q#A X022 (sc), vehicle: other): 68 % of control

SMILES: CCCCNCC(C)C(=O)OC (stereo unspecified)
- T/C [3]: 92 % of control
- T/C [4]: 93 % of control
- T/C [5]: 87 % of control
- T/C [6]: 104 % of control
- T/C (dose: 250.0 mg/kg/injection, schedule: Q01DX011 (ip), vehicle: methylcellulose (MC)): 104 % of control

SMILES: CSc1nc(Cl)c(Br)c(Sc2nc(N)nc3nc[nH]c23)n1
- T/C (dose: 6.25 mg/kg/injection, schedule: Q01DX011 (ip), vehicle: methylcellulose (MC)): 39 % of control
- T/C (dose: 12.0 mg/kg/injection, schedule: Q01DX011 (ip), vehicle: carboxymethylcellulose (CMC)): 59 % of control
- T/C (dose: 12.0 mg/kg/injection, schedule: Q01DX011 (ip), vehicle: methylcellulose (MC)): 29 % of control
- T/C [7]: 27 % of control
- T/C [8]: 28 % of control
- T/C [1]: 33 % of control and 48 % of control
- T/C [9]: 5 % of control
- T/C [10]: 42 % of control
- T/C (dose: 100.0 mg/kg/injection, schedule: Q01DX011 (ip), vehicle: methylcellulose (MC)): 7 % of control

SMILES: COC(=O)C1(N)CCCC1
- T/C (dose: 12.5 mg/kg/injection, schedule: Q01DX011 (ip), vehicle: carboxymethylcellulose (CMC)): 63 % of control
- T/C [8]: 35 % of control
- T/C [9]: 11 % of control
- T/C (dose: 100.0 mg/kg/injection, schedule: Q01DX011 (ip), vehicle: carboxymethylcellulose (CMC)): 5 % of control

SMILES: O=CC1CO1 (stereo unspecified)
- T/C (dose: 29.0 mg/kg/injection, schedule: Q01DX011 (ip), vehicle: saline): 71 % of control
- T/C (dose: 44.0 mg/kg/injection, schedule: Q01DX011 (ip), vehicle: saline): 41 % of control
- T/C (dose: 66.0 mg/kg/injection, schedule: Q01DX011 (ip), vehicle: saline): 66 % of control

SMILES: Cn1cc(F)c(=O)[nH]c1=O
- T/C [11]: 86 % of control
- T/C (dose: 10.0 mg/kg/injection, schedule: Q01DX011 (ip), vehicle: carboxymethylcellulose (CMC)): 117 % of control
- T/C [12]: 87 % of control
- T/C [13]: 99 % of control

SMILES: CCCCCCCCCCCC(=O)N(CC)CC
- T/C (dose: 15.6 mg/kg/injection, schedule: Q01DX011 (ip), vehicle: other): 92 % of control
- T/C (dose: 31.2 mg/kg/injection, schedule: Q01DX011 (ip), vehicle: other): 82 % of control
- T/C (dose: 62.5 mg/kg/injection, schedule: Q01DX011 (ip), vehicle: other): 84 % of control

SMILES: Cc1cccc(Nc2c(N)nc(N)nc2N)c1
- T/C (dose: 11.0 mg/kg/injection, schedule: Q01DX011 (ip), vehicle: carboxymethylcellulose (CMC)): 50 % of control
- T/C (dose: 22.0 mg/kg/injection, schedule: Q01DX011 (ip), vehicle: carboxymethylcellulose (CMC)): 61 % of control
- T/C (dose: 44.0 mg/kg/injection, schedule: Q01DX011 (ip), vehicle: carboxymethylcellulose (CMC)): 32 % of control
- T/C (dose: 88.0 mg/kg/injection, schedule: Q01DX011 (ip), vehicle: carboxymethylcellulose (CMC)): 48 % of control

SMILES: O=C(O)CC(O)(CC(=O)O)C(=O)O.[Ga]
- T/C (dose: 0.15 mg/kg/injection, schedule: Q01DX011 (ip), vehicle: carboxymethylcellulose (CMC)): 101 % of control
- T/C (dose: 0.3 mg/kg/injection, schedule: Q01DX011 (ip), vehicle: carboxymethylcellulose (CMC)): 67 % of control
- T/C (dose: 0.31 mg/kg/injection, schedule: Q01DX011 (ip), vehicle: carboxymethylcellulose (CMC)): 58 % of control
- T/C (dose: 0.6 mg/kg/injection, schedule: Q01DX011 (ip), vehicle: carboxymethylcellulose (CMC)): 72 % of control
- T/C (dose: 0.62 mg/kg/injection, schedule: Q01DX011 (ip), vehicle: carboxymethylcellulose (CMC)): 55 % of control
- T/C (dose: 1.2 mg/kg/injection, schedule: Q01DX011 (ip), vehicle: carboxymethylcellulose (CMC)): 42 % of control and 62 % of control
- T/C (dose: 1.25 mg/kg/injection, schedule: Q01DX011 (ip), vehicle: carboxymethylcellulose (CMC)): 25 % of control and 36 % of control
- T/C [12]: 5 % of control and 18 % of control
- T/C [13]: 5 % of control
- T/C [14]: 2 % of control

SMILES: Nc1[nH]cnc(=S)c1NC=O
- T/C [15]: 84 % of control
- T/C [16]: 63 % of control
- T/C [17]: 86 % of control
- T/C (dose: 200.0 mg/kg/injection, schedule: Q01DX011 (ip), vehicle: carboxymethylcellulose (CMC)): 101 % of control
- T/C (dose: 240.0 mg/kg/injection, schedule: Q01DX011 (ip), vehicle: carboxymethylcellulose (CMC)): 26 % of control
- T/C [18]: 29 % of control

SMILES: CCC(C)Cn1cnc2c(=O)[nH]c(N)nc21 (stereo unspecified)
- T/C (dose: 37.5 mg/kg/injection, schedule: Q01DX011 (ip), vehicle: methylcellulose (MC)): 75 % of control
- T/C [2]: 49 % of control
- T/C (dose: 150.0 mg/kg/injection, schedule: Q01DX011 (ip), vehicle: methylcellulose (MC)): 67 % of control

SMILES: CC(C)CN1CC(C)C(=O)N(c2ccccc2)C1=S (stereo unspecified)
- T/C [3]: 51 % of control
- T/C [4]: 89 % of control
- T/C [5]: 79 % of control
- T/C [6]: 57 % of control

SMILES: Nc1cnc(=O)[nH]c1N
- T/C [15]: 92 % of control
- T/C [16]: 92 % of control
- T/C [17]: 122 % of control
- T/C [18]: 78 % of control
- T/C (dose: 600.0 mg/kg/injection, schedule: Q01DX011 (ip), vehicle: carboxymethylcellulose (CMC)): 96 % of control

SMILES: O=C(CCBr)NCCCNC(=O)CCBr
- T/C [1]: 54 % of control
- T/C [2]: 37 % of control

SMILES: Nc1nc(SC2CCCCC2)c2[nH]cnc2n1
- T/C (dose: 1.0 mg/kg/injection, schedule: Q01DX011 (ip), vehicle: carboxymethylcellulose (CMC)): 60 % of control
- T/C [11]: 83 % of control
- T/C [12]: 4 % of control and 9 % of control
- T/C [13]: 1 % of control
- T/C [14]: 1 % of control
- T/C (dose: 160.0 mg/kg/injection, schedule: Q01DX011 (ip), vehicle: carboxymethylcellulose (CMC)): 2 % of control

SMILES: Nc1nc(=S)c2ncn(C3CCCCC3)c2[nH]1
- T/C [7]: 81 % of control
- T/C [1]: 86 % of control
- T/C [10]: 50 % of control

SMILES: OCC1OC(n2cnc3c(I)ncnc32)C(O)C1O (stereo unspecified)
- T/C (dose: 30.0 mg/kg/injection, schedule: Q01DX011 (ip), vehicle: saline): 73 % of control
- T/C (dose: 60.0 mg/kg/injection, schedule: Q01DX011 (ip), vehicle: saline): 73 % of control
- T/C (dose: 120.0 mg/kg/injection, schedule: Q01DX011 (ip), vehicle: saline): 49 % of control
- T/C (dose: 240.0 mg/kg/injection, schedule: Q01DX011 (ip), vehicle: saline): 29 % of control

SMILES: CN(C)c1nc(N)c2ncn(C3OC(CO)C(O)C3O)c2n1 (stereo unspecified)
- T/C [4]: 80 % of control
- T/C [6]: 74 % of control

SMILES: OCCOCCN1CCN(CCCN2c3ccccc3Sc3ccc(C(F)(F)F)cc32)CC1
- T/C (dose: 5.0 mg/kg/injection, schedule: Q01DX011 (ip), vehicle: saline): 54 % of control and 75 % of control
- T/C (dose: 20.0 mg/kg/injection, schedule: Q01DX011 (ip), vehicle: saline): 12 % of control and 29 % of control

Reference: PubChem BioAssay AID180 (DTP/NCI, 2004)
